Results as given in patent US20090143279A1 (priority 2007, published 2009).
Read-outs that look alike come from different tables or passages of the source.

Experiments:
[1] = tested on: nuOXPHOS transcripts; assay type: cell-based, mouse
[2] = tested on: cellular dehydrogenase activity
[3] = tested on: OXPHOS gene expression; assay type: cell-based, mouse
[4] = tested on: C2C12 myotubes
[5] = tested on: reactive oxygen species; assay type: cell-based, mouse
[6] = tested on: mtOXPHOS transcripts; assay type: cell-based, mouse
[7] = tested on: mitochondrial membrane potential; assay type: cell-based, mouse
[8] = tested on: cytochrome c; assay type: cell-based, mouse
[9] = composite Z-score vs DMSO wells, Conc 20 μM
[10] = Conc 20 μM, normalized score vs mock-treated (DMSO) wells
[11] = 13.14 μM, composite Z-score vs DMSO
[12] = 20 μM, composite Z-score vs DMSO
[13] = 7.92 μM, composite Z-score vs DMSO
[14] = composite Z-score vs mock-treated (DMSO) wells, concentration of each compound in μM
[15] = normalized score (composite Z-score vs DMSO mock-treated wells), compound concentration (μM)

SMILES: CCOC(=O)CCCCCCCCCCCCC1C=CCC1 (centres unmarked) [chaulmoogric acid, ethyl ester]
- nucOX [1, 9]: −0.876
- MTT [2, 9]: −0.612
- GE-HTS [3, 9]: −0.730
- Viability [4, 9]: −0.015
- ROS [5, 9]: 0.513
- mitoOX [6, 9]: −0.265
- ΔΨm [7, 9]: −0.536
- cyt c [8, 9]: 0.617

SMILES: O=C(CCCCCCCCCCCCC1CCCC1)Nc1ccc(S(=O)(=O)c2ccc(NC(=O)CCCCCCCCCCCCC3CCCC3)cc2)cc1 [chaulmosulfone]
- nucOX (composite Z-score) [1, 10]: 0.083
- MTT (composite Z-score) [2, 10]: −0.289
- GE-HTS (composite Z-score) [3, 10]: 0.157
- Viability (composite Z-score) [4, 10]: −0.010
- ROS (composite Z-score) [5, 10]: 0.935
- mitoOX (composite Z-score) [6, 10]: 0.305
- ΔΨm (composite Z-score) [7, 10]: −0.993
- cyt c (composite Z-score) [8, 10]: −0.036

SMILES: O=C(O)CCCc1ccc(N(CCCl)CCCl)cc1 [chlorambucil]
- nucOX [1, 11]: 0.147
- nucOX [1, 12]: 0.360
- MTT [2, 11]: −0.069
- MTT [2, 12]: −1.519
- GE-HTS [3, 11]: 0.249
- GE-HTS [3, 12]: 0.725
- Viability [4, 11]: −0.507
- Viability [4, 12]: −0.007
- ROS [5, 11]: 0.056
- ROS [5, 12]: 0.165
- mitoOX [6, 11]: 0.398
- mitoOX [6, 12]: 1.273
- ΔΨm [7, 11]: 0.199
- ΔΨm [7, 12]: −0.826
- cyt c [8, 11]: 0.035
- cyt c [8, 12]: −0.955

SMILES: [H]/N=C(\N/C(=N/[H])NCCCCCCNC(=N)NC(=N)Nc1ccc(Cl)cc1)Nc1ccc(Cl)cc1 [chlorhexidine]
- nucOX [1, 13]: 0.990
- nucOX [1, 12]: −0.592
- MTT [2, 13]: −4.138
- MTT [2, 12]: −2.340
- GE-HTS [3, 13]: 0.775
- GE-HTS [3, 12]: −0.455
- Viability [4, 13]: −1.859
- Viability [4, 12]: −0.976
- ROS [5, 13]: −2.490
- ROS [5, 12]: 1.660
- mitoOX [6, 13]: 0.140
- mitoOX [6, 12]: −0.141
- ΔΨm [7, 13]: 0.348
- ΔΨm [7, 12]: 0.412
- cyt c [8, 13]: 0.090
- cyt c [8, 12]: −1.683

SMILES: Cc1cc(O)ccc1Cl [chlorocresol]
- nucOX [1, 12]: 0.611
- MTT [2, 12]: −0.607
- GE-HTS [3, 12]: 0.206
- Viability [4, 12]: −0.414
- ROS [5, 12]: 0.102
- mitoOX [6, 12]: −0.728
- ΔΨm [7, 12]: 0.528
- cyt c [8, 12]: 0.747

SMILES: C=Cc1c(C)c2cc3nc(c4c5[n-]c(cc6nc(cc1[n-]2)C(C)=C6CC)c(C)c5C(=O)[C@@H]4C(=O)OC)[C@@H](CCC(=O)O)[C@@H]3C.[Mg+2] [chlorophyllide]
- nucOX [1, 14]: 0.303
- MTT [2, 14]: 0.307
- GE-HTS [3, 14]: 0.282
- Viability [4, 14]: −0.178
- ROS [5, 14]: 1.042
- mitoOX [6, 14]: 0.224
- ΔΨm [7, 14]: −0.783
- cyt c [8, 14]: −1.157

SMILES: NS(=O)(=O)c1cc2c(cc1Cl)N=CNS2(=O)=O [chlorothiazide]
- nucOX [1, 9]: −0.608
- MTT [2, 9]: −0.711
- GE-HTS [3, 9]: −0.331
- Viability [4, 9]: 0.116
- ROS [5, 9]: 1.202
- mitoOX [6, 9]: 0.221
- ΔΨm [7, 9]: −0.831
- cyt c [8]: 0.431
- cyt c [8, 9]: 0.566

SMILES: Oc1c(Cl)cc(Cl)c2cccnc12 [chloroxine]
- nucOX [1, 9]: −0.461
- MTT [2, 9]: −2.014
- GE-HTS [3, 9]: −1.089
- Viability [4, 9]: −1.392
- ROS [5, 9]: −2.934
- mitoOX [6, 9]: −2.181
- ΔΨm [7, 9]: 1.120
- cyt c [8, 9]: −0.800

SMILES: Cc1cc(O)cc(C)c1Cl [chloroxylenol]
- nucOX [1, 12]: −0.857
- MTT [2, 12]: −2.046
- GE-HTS [3, 12]: −0.811
- Viability [4, 12]: −0.639
- ROS [5, 12]: 2.165
- mitoOX [6, 12]: −0.614
- ΔΨm [7, 12]: −0.917
- cyt c [8, 12]: 0.499

SMILES: OCC(O)COc1ccc(Cl)cc1 (centres unmarked) [chlorphensin]
- nucOX [1, 15]: −0.613
- MTT [2, 15]: −0.356
- GE-HTS [3, 15]: −0.696
- Viability [4, 15]: −1.132
- ROS [5, 15]: 0.692
- mitoOX [6, 15]: −0.766
- ΔΨm [7, 15]: −0.419
- cyt c [8, 15]: −0.522

SMILES: NS(=O)(=O)c1cc(C2(O)NC(=O)c3ccccc32)ccc1Cl (centres unmarked) [chlorthalidone]
- nucOX [1]: −0.009
- nucOX [1, 12]: 0.646
- MTT [2]: −1.736
- MTT [2, 12]: −1.134
- GE-HTS [3]: −0.236
- GE-HTS [3, 12]: 0.793
- Viability [4]: 0.081
- Viability [4, 12]: 0.308
- ROS [5]: 1.047
- ROS [5, 12]: 1.655
- mitoOX [6]: −0.641
- mitoOX [6, 12]: 0.877
- ΔΨm [7]: −0.750
- ΔΨm [7, 12]: −0.257
- cyt c [8]: 0.531
- cyt c [8, 12]: 0.066
